Measurements reported in US20090162459A1, “Combination Therapy for Treatment of Patients with Neurological Disorders and Cerebral Infarction” (priority 2006, published 2009).

What was measured:
Acute Ischemic Stroke = details: cited from earlier work
acute ischaemic stroke = details: secondary stroke prevention in cerebral stroke patients, aspirin/other antiplatelets/anticoagulant; cited from earlier work
blood coagulation = test: Phase IV open-label study NeuroAid®/aspirin interaction in healthy volunteers, 5 coagulation tests; type: in vivo, human; details: 11 healthy volunteers per group
Description: Blood samples of the subjects were collected before they received treatment and 2 and 8 hours after treatment initiation.

[1] = clinical stroke trials, versus placebo

Row | SMILES | cognitive function as measured by the Mini Mental Status Examination (Acute Ischemic Stroke; [1]) | functional outcome as measured by the Barthel Index and Rankin scale (Acute Ischemic Stroke; [1]) | neurologic evaluation as measured by the NIH stroke scale (Acute Ischemic Stroke; [1]) | complete recovery at 3 months (Acute Ischemic Stroke; oral Citicoline, acute ischemic stroke, Davalos et al. 2002) | improvement effect (acute ischaemic stroke) | Activated Partial Prothrombine Time, Mean (blood coagulation; T + 2 hours) [s] | D-Dimer, Mean (blood coagulation; T + 2 hours) [µg/mL] | Fibrinogen, Mean (blood coagulation; T + 2 hours) [G/L] | Platelet Aggregation, Mean (blood coagulation; T + 2 hours) [Percentage] | D-Dimer, Mean (blood coagulation; T + 8 hours) [µg/mL] | Fibrinogen, Mean (blood coagulation; T + 8 hours) [G/L] | Platelet Aggregation, Mean (blood coagulation; T + 8 hours) [Percentage] | Activated Partial Prothrombine Time, Mean (blood coagulation; T = 0, before treatment) [s] | D-Dimer, Mean (blood coagulation; T = 0, before treatment) [µg/mL] | Fibrinogen, Mean (blood coagulation; T = 0, before treatment) [G/L] | Platelet Aggregation, Mean (blood coagulation; T = 0, before treatment) [Percentage] | Quick Prothrombine Time, Mean (blood coagulation; T = 0, before treatment) [s]
1 | C[N+](C)(C)CCOP(=O)(O)OP(=O)([O-])OC[C@H]1O[C@@H](n2ccc(N)nc2=O)[C@H](O)[C@@H]1O [Citicoline, CDP-choline] | significant difference between the groups, favoring citicoline treatment | significant difference between the groups, favoring citicoline treatment | significant difference between the groups, favoring citicoline treatment | improve complete recovery at 3 months | – | – | – | – | – | – | – | – | – | – | – | – | –
2 | CC(=O)Oc1ccccc1C(=O)O [Aspirin alone, Acetylsalicylic Acid] | – | – | – | – | about 1% | 39.0 | 0.16 | 3.2 | 62.87 | 0.16 | 3.0 | 48.01 | 38.8 | 0.16 | 3.2 | 62.82 | 12.9
